Columns and labels:
[1] = system: smallflower umbrella sedge (CYPDI, Cyperus difformis); assay: Test A flooded greenhouse test, smallflower umbrella sedge; type: in vivo; conditions: 14 d
Description: (§1) Seeds of Asian sprangletop (LEPCH, Leptochloa chinensis), smallflower umbrella sedge (CYPDI, Cyperus difformis), monochoria (MOOVA, Monochoria vaginalis) and ducksalad (HETLI, Heteranthera limosa) were sown on the soil surface in four separate quadrants of 16-cm tubs filled with steam pasteurized Tama soil. Simultaneously, plantings of barnyardgrass (ECHCG, Echinochloa crus-galli), japonica rice (ORYSA, Oryza sativa) and late watergrass (ECHPH, Echinochloa phyllopogon) were established in separate “plug” flats. Plants were grown in a greenhouse using supplemental lighting to maintain a photoperiod of approximately 16 h; daytime and nighttime temperatures were approximately 27-30° C. and 24-27° C., respectively. After 8 d, barnyardgrass, rice and late watergrass plants were transplanted in 3 quadrants of separate tub, and the water level was adjusted to a final depth of 3 cm. Herbicide application of Cmpd. No. 1 and florpyrauxifen-benzyl (CAS Registry No. 1390661-72-9; 439.2 g/mol) timing was targeted at the 2.0 to 2.5 leaf stage and the plants were treated with test chemicals formulated in a non-phytotoxic solvent. Treated plants and controls were maintained in a greenhouse for 14 d, after which time all species were compared to controls and visually evaluated. Plant response ratings are summarized in Table A, and are based on a scale of 0 to 100 where 0 is no effect and 100 is complete control and is the mean of duplicate ratings. A dash (-) response means no test result.
(§2) Colby's Equation was used to determine the herbicidal effects expected from the mixtures. Colby's Equation (Colby, S. R. “Calculating Synergistic and Antagonistic Responses of Herbicide Combinations,” Weeds 1967 15(1), pp 20-22) calculates the expected additive effect of herbicidal mixtures and for two active ingredients is of the form: Pa+b=Pa+Pb−(PaPb/100) wherein Pa+b is the percentage effect of the mixture expected from additive contribution of the individual components: • Pa is the observed percentage effect of the first active ingredient at the same use rate as in the mixture, and • Pb is the observed percentage effect of the second active ingredient at the same use rate as in the mixture. The results and additive effects expected from Colby's Equation are listed in Table A. Application rates are grams of active ingredient per hectare (g a.i./ha). “Obsd.” is the observed effect and “Exp.” is expected effect calculated from Colby's Equation.

[2] = system: late watergrass (ECHPH, Echinochloa phyllopogon); assay: Test A flooded greenhouse test, late watergrass; type: in vivo; conditions: 14 d
Description: as §1, §2

[3] = system: ducksalad (HETLI, Heteranthera limosa); assay: Test A flooded greenhouse test, ducksalad; type: in vivo; conditions: 14 d
Description: as §1, §2

[4] = system: barnyardgrass (ECHCG, Echinochloa crus-galli); assay: Test A flooded greenhouse test, barnyardgrass; type: in vivo; conditions: 14 d
Description: as §1, §2

[5] = system: Asian sprangletop (LEPCH, Leptochloa chinensis); assay: Test A flooded greenhouse test, Asian sprangletop; type: in vivo; conditions: 14 d
Description: as §1, §2

[6] = system: monochoria (MOOVA, Monochoria vaginalis); assay: Test A flooded greenhouse test, monochoria; type: in vivo; conditions: 14 d
Description: as §1, §2

[7] = system: japonica rice (ORYSA, Oryza sativa); assay: Test A flooded greenhouse test, japonica rice (crop); type: in vivo
Description: as §1
Colby's Equation was used to determine the herbicidal effects expected from the mixtures. […] “Obsd.” is the observed effect and “Exp.” is expected effect calculated from Colby's Equation.

kochia (Kochia scoparia) [8] = assay: Test B preemergence, kochia; type: in vivo; conditions: approximately 10 d
Description: (§3) Seeds of plant species selected from barnyardgrass (Echinochloa crus-galli), kochia (Kochia scoparia), ragweed (common ragweed, Ambrosia elatior), Ryegrass, Italian (Italian ryegrass, Lolium multiflorum), foxtail, green (green foxtail, Setaria viridis), and pigweed (Amaranthus retroflexus) were planted into a blend of loam soil and sand and treated preemergence with a directed soil spray using test chemicals formulated in a non-phytotoxic solvent mixture which included a surfactant.
(§4) At the same time, plants selected from these weed species and also wheat (Triticum aestivum), corn (Zea mays), blackgrass (Alopecurus myosuroides), and galium (catchweed bedstraw, Galium aparine) were planted in pots containing the same blend of loam soil and sand and treated with postemergence applications of test chemicals formulated in the same manner. Plants ranged in height from 2 to 10 cm and were in the one- to two-leaf stage for the postemergence treatment. Treated plants and untreated controls were maintained in a greenhouse for approximately 10 d, after which time all treated plants were compared to untreated controls and visually evaluated for injury. Plant response ratings, summarized in Table B, are based on a 0 to 100 scale where 0 is no effect and 100 is complete control. A dash (-) response means no test result.

[9] = system: sedge, umbrella (small-flower umbrella sedge, Cyperus difformis); assay: Test C flooded paddy test, umbrella sedge; type: in vivo; conditions: Flood; 250 g ai/ha; 13 to 15 d
Description: (§5) Test C Plant species in the flooded paddy test selected from rice (Oryza sativa), sedge, umbrella (small-flower umbrella sedge, Cyperus difformis), ducksalad (Heteranthera limosa), and barnyardgrass (Echinochloa crus-galli) were grown to the 2-leaf stage for testing. At time of treatment, test pots were flooded to 3 cm above the soil surface, treated by application of test compounds directly to the paddy water, and then maintained at that water depth for the duration of the test. Treated plants and controls were maintained in a greenhouse for 13 to 15 d, after which time all species were compared to controls and visually evaluated. Plant response ratings, summarized in Table C, are based on a scale of 0 to 100 where 0 is no effect and 100 is complete control. A dash (-) response means no test result.

[10] = system: ragweed (common ragweed, Ambrosia elatior); assay: Test B preemergence, ragweed; type: in vivo; conditions: approximately 10 d
Description: as §3, §4

[11] = system: galium (catchweed bedstraw, Galium aparine); assay: Test B postemergence, galium; type: in vivo; conditions: approximately 10 d
Description: as §3, §4

kochia (Kochia scoparia) [12] = assay: Test B postemergence, kochia; type: in vivo; conditions: approximately 10 d
Description: as §3, §4

[13] = system: ducksalad (Heteranthera limosa); assay: Test C flooded paddy test, ducksalad; type: in vivo; conditions: Flood; 250 g ai/ha; 13 to 15 d
Description: as §5

[14] = system: pigweed (Amaranthus retroflexus); assay: Test B postemergence, pigweed; type: in vivo; conditions: approximately 10 d
Description: as §3, §4

[15] = system: pigweed (Amaranthus retroflexus); assay: Test B preemergence, pigweed; type: in vivo; conditions: approximately 10 d
Description: as §3, §4

[16] = system: Ryegrass, Italian (Italian ryegrass, Lolium multiflorum); assay: Test B preemergence, Italian ryegrass; type: in vivo; conditions: approximately 10 d
Description: as §3, §4

[17] = system: barnyardgrass (Echinochloa crus-galli); assay: Test C flooded paddy test, barnyardgrass; type: in vivo; conditions: Flood; 250 g ai/ha; 13 to 15 d
Description: as §5

[18] = system: Ryegrass, Italian (Italian ryegrass, Lolium multiflorum); assay: Test B postemergence, Italian ryegrass; type: in vivo; conditions: approximately 10 d
Description: as §3, §4

[19] = system: barnyardgrass (Echinochloa crus-galli); assay: Test B preemergence, barnyardgrass; type: in vivo; conditions: approximately 10 d
Description: as §3, §4

[20] = system: ragweed (common ragweed, Ambrosia elatior); assay: Test B postemergence, ragweed; type: in vivo; conditions: approximately 10 d
Description: as §3, §4

[21] = system: wheat (Triticum aestivum); assay: Test B postemergence, wheat; type: in vivo; conditions: approximately 10 d
Description: as §3, §4

corn (Zea mays) = assay: Test B postemergence, corn; type: in vivo; conditions: approximately 10 d
Description: as §3, §4

[22] = system: foxtail, green (green foxtail, Setaria viridis); assay: Test B postemergence, green foxtail; type: in vivo; conditions: approximately 10 d
Description: as §3, §4

[23] = system: foxtail, green (green foxtail, Setaria viridis); assay: Test B preemergence, green foxtail; type: in vivo; conditions: approximately 10 d
Description: as §3, §4

[24] = system: barnyardgrass (Echinochloa crus-galli); assay: Test B postemergence, barnyardgrass; type: in vivo; conditions: approximately 10 d
Description: as §3, §4

rice (Oryza sativa) = conditions: in vivo
Description: as §5

[25] = system: blackgrass (Alopecurus myosuroides); assay: Test B postemergence, blackgrass; type: in vivo; conditions: approximately 10 d
Description: as §3, §4

[26] = florpyrauxifen-benzyl 2 g a.i./ha alone
[27] = florpyrauxifen-benzyl 4 g a.i./ha alone

## COc1c(Cl)ccc(-c2nc(C(=O)OCc3ccccc3)c(Cl)c(N)c2F)c1F [florpyrauxifen-benzyl, 2-pyridinecarboxylic acid, 4-amino-3-chloro-6-(4-chloro-2-fluoro-3-methoxyphenyl)-5-fluoro-, phenylmethyl ester, reference compound]
[1]; [26]
  CYPDI Obsd. plant response rating (0 to 100): 80
[1]; [27]
  CYPDI Obsd. plant response rating (0 to 100): 85
[2]; [26]
  ECHPH Obsd. plant response rating (0 to 100): 0
[2]; [27]
  ECHPH Obsd. plant response rating (0 to 100): 0
[3]; [26]
  HETLI Obsd. plant response rating (0 to 100): 90
[3]; [27]
  HETLI Obsd. plant response rating (0 to 100): 100
[4]; [26]
  ECHCG Obsd. plant response rating (0 to 100): 0
[4]; [27]
  ECHCG Obsd. plant response rating (0 to 100): 0
[5]; [26]
  LEPCH Obsd. plant response rating (0 to 100): 0
[5]; [27]
  LEPCH Obsd. plant response rating (0 to 100): 0
[6]; [26]
  MOOVA Obsd. plant response rating (0 to 100): 90
[6]; [27]
  MOOVA Obsd. plant response rating (0 to 100): 100
[7]; florpyrauxifen-benzyl 2 g a.i./ha alone, 14 d
  ORYSA Obsd. plant response rating (0 to 100): 0
[7]; florpyrauxifen-benzyl 4 g a.i./ha alone, 14 d
  ORYSA Obsd. plant response rating (0 to 100): 0

## Cc1cc([C@H]2CN(C)C(=O)[C@@H]2C(=O)Nc2cccc(F)c2F)cc(OC(F)F)n1 [Cmpd. No. 4]
Kochia (Kochia scoparia) [8]; 31 g ai/ha
  Kochia plant response rating (0 to 100): 0
Kochia (Kochia scoparia) [8]; 125 g ai/ha
  Kochia plant response rating (0 to 100): 80
[9]
  Sedge, Umbrella plant response rating (0 to 100): 0
[10]; 31 g ai/ha
  Ragweed plant response rating (0 to 100): 0
[10]; 125 g ai/ha
  Ragweed plant response rating (0 to 100): 20
[11]; 31 g ai/ha
  Galium plant response rating (0 to 100): 0
[11]; 125 g ai/ha
  Galium plant response rating (0 to 100): 60
Kochia (Kochia scoparia) [12]; 31 g ai/ha
  Kochia plant response rating (0 to 100): 0
Kochia (Kochia scoparia) [12]; 125 g ai/ha
  Kochia plant response rating (0 to 100): 20
[13]
  Ducksalad plant response rating (0 to 100): 100
[14]; 31 g ai/ha
  Pigweed plant response rating (0 to 100): 20
[14]; 125 g ai/ha
  Pigweed plant response rating (0 to 100): 60
[15]; 31 g ai/ha
  Pigweed plant response rating (0 to 100): 40
[15]; 125 g ai/ha
  Pigweed plant response rating (0 to 100): 90
[16]; 31 g ai/ha
  Ryegrass, Italian plant response rating (0 to 100): 30
[16]; 125 g ai/ha
  Ryegrass, Italian plant response rating (0 to 100): 90
[17]
  Barnyardgrass plant response rating (0 to 100): 85
[18]; 31 g ai/ha
  Ryegrass, Italian plant response rating (0 to 100): 30
[18]; 125 g ai/ha
  Ryegrass, Italian plant response rating (0 to 100): 70
[19]; 31 g ai/ha
  Barnyardgrass plant response rating (0 to 100): 100
[19]; 125 g ai/ha
  Barnyardgrass plant response rating (0 to 100): 100
[20]; 31 g ai/ha
  Ragweed plant response rating (0 to 100): 0
[20]; 125 g ai/ha
  Ragweed plant response rating (0 to 100): 60
[21]; 31 g ai/ha
  Wheat plant response rating (0 to 100): 40
[21]; 125 g ai/ha
  Wheat plant response rating (0 to 100): 70
Corn (Zea mays); 31 g ai/ha
  Corn plant response rating (0 to 100): 60
Corn (Zea mays); 125 g ai/ha
  Corn plant response rating (0 to 100): 80
[22]; 31 g ai/ha
  Foxtail, Green plant response rating (0 to 100): 70
[22]; 125 g ai/ha
  Foxtail, Green plant response rating (0 to 100): 90
[23]; 31 g ai/ha
  Foxtail, Green plant response rating (0 to 100): 100
[23]; 125 g ai/ha
  Foxtail, Green plant response rating (0 to 100): 100
[24]; 31 g ai/ha
  Barnyardgrass plant response rating (0 to 100): 80
[24]; 125 g ai/ha
  Barnyardgrass plant response rating (0 to 100): 90
Rice (Oryza sativa)
  Rice plant response rating (0 to 100): 30
[25]; 31 g ai/ha
  Blackgrass plant response rating (0 to 100): 60
[25]; 125 g ai/ha
  Blackgrass plant response rating (0 to 100): 70

## CN1C[C@H](c2cccc(C(F)(F)F)c2)[C@@H](C(=O)Nc2ccccc2F)C1=O [Cmpd. No. 1]
[1]; Cmpd. No. 1 50 g a.i./ha alone
  CYPDI Obsd. plant response rating (0 to 100): 0
[1]; Cmpd. No. 1 75 g a.i./ha alone
  CYPDI Obsd. plant response rating (0 to 100): 0
[2]; Cmpd. No. 1 50 g a.i./ha alone
  ECHPH Obsd. plant response rating (0 to 100): 75
[2]; Cmpd. No. 1 75 g a.i./ha alone
  ECHPH Obsd. plant response rating (0 to 100): 85
[3]; Cmpd. No. 1 50 g a.i./ha alone
  HETLI Obsd. plant response rating (0 to 100): 70
[3]; Cmpd. No. 1 75 g a.i./ha alone
  HETLI Obsd. plant response rating (0 to 100): 70
[4]; Cmpd. No. 1 50 g a.i./ha alone
  ECHCG Obsd. plant response rating (0 to 100): 70
[4]; Cmpd. No. 1 75 g a.i./ha alone
  ECHCG Obsd. plant response rating (0 to 100): 70
[5]; Cmpd. No. 1 50 g a.i./ha alone
  LEPCH Obsd. plant response rating (0 to 100): 75
[5]; Cmpd. No. 1 75 g a.i./ha alone
  LEPCH Obsd. plant response rating (0 to 100): 85
[6]; Cmpd. No. 1 50 g a.i./ha alone
  MOOVA Obsd. plant response rating (0 to 100): 70
[6]; Cmpd. No. 1 75 g a.i./ha alone
  MOOVA Obsd. plant response rating (0 to 100): 70
[7]; in vivo
  ORYSA Obsd. plant response rating (0 to 100): 0

Source: patent US11919859B2, “Herbicidal mixture, composition and method” (FMC Corporation, priority 2017, dated 2024)
